The values below come from patent publication US20130064831A1, “IMMUNOTHERAPEUTIC DOSING REGIMENS AND COMBINATIONS THEREOF” (Bristol-Myers Squibb Company, priority 2010, published 2013).

Data set [1] has as its system NSCLC Subjects. The data set is described as follows: CA184041 phase II trial: safety, exposure and discontinuation. Conditions: in vivo. The procedure: Blinded Study Drug: Ipilimumab 10 mg/kg or matched placebo administered as a single dose intravenously over 90 minutes every 3 weeks (up to 6 doses) as part of induction. Subjects may receive additional maintenance Ipilimumab/placebo at a dose of 10 mg/kg and administered intravenously over 90 minutes every 12 weeks starting 24 weeks after the first Ipilimumab/placebo dose. Dose reductions were not permitted. […] Dose modifications (reductions as well as delays) are as per product label. PARAPLATIN®: AUC=6 administered as a single dose intravenously over 30 minutes every 3 weeks (up to 6 doses). Dose modifications (reductions as well as delays) are as per product label. Treatment with blinded Ipilimumab (active or placebo) proceeded until immune-related tumor progression as defined by the irRC is observed or intolerable toxicity occurs.
Safety was summarized and listed for all treated subjects using the National Cancer Institute (NCI) Common Terminology Criteria for Adverse Events (CTCAE) version 3.0 by treatment arm for each tumor type. All treatment emergent AEs, drug-related treatment emergent AEs, serious AEs and drug-related SAEs were tabulated using worst grade per NCI CTCAE v3.0 criteria by system, organ, class, and preferred term. The listings by subject were produced for all deaths, all SAEs and all AEs leading to discontinuation of study drug. […]

The subject of data set [2] is melanoma. Conditions: cited from earlier work.
Data set [3] concerns ovarian or prostate cancer. Conditions: some patients with ovarian or prostate cancer; cited from earlier work.

Consider “Ipilimumab: fully human IgG1 anti-CTLA-4 monoclonal antibody, CAS 477202-00-9, light/heavy chain variable regions SEQ ID NO:1 and 2”, for which, in data set [1], the “potentiation of chemotherapy-related toxicity” value is “did not potentiate chemotherapy-related toxicity”. Besides, the tumor regressions result in data set [2] (initial studies in patients with melanoma) is given as “objective durable tumor regressions”. In data set [2] (patients with advanced melanoma), the antitumor activity result is given as “demonstrated antitumor activity”. Further, the serum tumor markers entry in data set [3] is on record as “reductions of serum tumor markers”.
